Tests used:
Integrase [1] = target: T1, Integrase (Human immunodeficiency virus 1, UniProt Q7ZJM1); test: Inhibitory concentration as 50% inhibition of HIV-1 integrase enzyme at strand transfer stage of DNA integration.
Integrase [2] = target: T1, Integrase; test: Inhibition of HIV-1 integrase enzyme at 3`- processing stage of DNA integration

T1 sequence (Q7ZJM1 whole entry): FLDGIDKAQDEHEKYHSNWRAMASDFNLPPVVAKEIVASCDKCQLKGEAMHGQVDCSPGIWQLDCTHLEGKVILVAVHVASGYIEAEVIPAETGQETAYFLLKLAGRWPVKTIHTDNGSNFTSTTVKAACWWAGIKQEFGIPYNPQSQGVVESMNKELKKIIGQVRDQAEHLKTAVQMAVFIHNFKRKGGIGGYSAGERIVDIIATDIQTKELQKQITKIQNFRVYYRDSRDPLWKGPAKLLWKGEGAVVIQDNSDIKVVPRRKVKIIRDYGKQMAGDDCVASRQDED

IC50 (Integrase [1]) [µM]	IC50 (Integrase [2]) [µM]	Compound
> 293	> 293	C=c1[nH]n(C(=O)c2ccc(Cl)cc2)c(=O)c1=Cc1ccc(O)cc1
	0.9	C=c1[nH]n(C(=O)c2ccccc2O)c(=O)c1=Cc1ccc(OC)cc1
0.6	0.8	C=c1[nH]n(C(=O)c2ccccc2O)c(=O)c1=Cc1ccc(O)c(OC)c1 [2-(2-Hydroxy-benzoyl)-4-[1-(4-hydroxy-3-methoxy-phenyl)-meth-(E)-ylidene]-5-methyl-2,4-dihydro-pyrazol-3-one]
0.9	0.6	C=c1[nH]n(C(=O)c2ccccc2O)c(=O)c1=Cc1ccc(O)cc1 [2-(2-Hydroxy-benzoyl)-4-[1-(4-hydroxy-phenyl)-meth-(E)-ylidene]-5-methyl-2,4-dihydro-pyrazol-3-one]
> 293	> 293	C=c1[nH]n(C(=O)c2ccc(Cl)cc2)c(=O)c1=Cc1ccccc1O [2-(4-Chloro-benzoyl)-4-[1-(2-hydroxy-phenyl)-meth-(E)-ylidene]-5-methyl-2,4-dihydro-pyrazol-3-one]
> 260	> 260	C=c1[nH]n(C(=O)c2ccc(Cl)cc2)c(=O)c1=Cc1ccc(OC)c(OC)c1 [2-(4-Chloro-benzoyl)-4-[1-(3,4-dimethoxy-phenyl)-meth-(E)-ylidene]-5-methyl-2,4-dihydro-pyrazol-3-one]
> 293	> 293	C=c1[nH]n(C(=O)c2ccc(Cl)cc2)c(=O)c1=Cc1cccc(O)c1 [2-(4-Chloro-benzoyl)-4-[1-(3-hydroxy-phenyl)-meth-(E)-ylidene]-5-methyl-2,4-dihydro-pyrazol-3-one]
> 280	> 280	C=c1[nH]n(C(=O)c2ccc(Cl)cc2)c(=O)c1=Cc1ccc(Cl)cc1 [2-(4-Chloro-benzoyl)-4-[1-(4-chloro-phenyl)-meth-(E)-ylidene]-5-methyl-2,4-dihydro-pyrazol-3-one]
> 240	> 240	C=c1[nH]n(C(=O)c2ccc(Cl)cc2)c(=O)c1=Cc1cc(OC)c(OC)c(OC)c1 [2-(4-Chloro-benzoyl)-5-methyl-4-[1-(3,4,5-trimethoxy-phenyl)-meth-(E)-ylidene]-2,4-dihydro-pyrazol-3-one]

Source: BindingDB's records for doi:10.1021/jm9801760 (National Cancer Institute-Bethesda, 1998)
